Where “and” joins values, the source holds several entries; their conditions need not be identical. Identical values can stand only once.
How the values were obtained:
Type in all cases: cell-based
[1] = test system: herpes simplex virus type 1 (HF strain); test: 50% Tissue culture infective dose (TCID50), Read-Munch method, negative logarithm of virus dilution
Description: In vitro antiviral activity of Compound A against herpes simplex virus type 1 (HF strain) Compound A was tested for antiviral effect by the following two methods.
The amount of virus infecting 50% of tissues (TCID₅₀) was determined by the Read-Munch method and expressed in negative logarithm of the maximum radio of dilution of virus. The difference of the amount thus determined from the amount found in the control (omitting the treatment with a chemical) was reported as ΔTCID₅₀. A sample whose ΔCPE's found on the last day of observation and on each of the days spent for the observation exceeded 1.0 was evaluated as effective.
In vitro antiviral effect of Compound A against herpes simplex virus type 1 (HF strain) The test was carried out by following the procedure of Example 3.

[2] = test system: herpes simplex virus type 1 (KOS strain); test: One-step growth of virus, plaque assay with vero cells; details: for Intracellular virus Average / Intracellular virus Control ratio % / Intracellular virus Control ratio -logT/C: 24 hours
Description: Antiviral activity of Compound A and Compound B against one-step growth of herpes simplex virus type 1 (KOS strain) Cells grown in a monolayer, with a sample of a given compound diluted in a varying ratio added, were pretreated for 15 minutes. Then, the pretreated cells were infected with the herpes simplex virus type 1 (KOS strain) at an infecting ratio of 0.25 and left standing for 24 hours. At the end of the standing, the intracellular and extracellular amounts of virus were determined by the plaque assay with vero cells.

[3] = test system: herpes simplex virus type 2 (169 strain); test: Control of CPE (cytopathic effect) manifestation in vero cells; design: key to Cytopathic effect [CPE] (3days) Average / Cytopathic effect [CPE] (5days) Average / Cytopathic effect [CPE] (6days) Average: CPE score 0-3: 3 = ≥75% cells, 2 = 50%, 1 = 25%, 0 = none; key to Cytopathic effect [CPE] (3days) △CPE / Cytopathic effect [CPE] (5days) △CPE / Cytopathic effect [CPE] (6days) △CPE: difference of mean CPE score (0-3 scale) from untreated control; details: HSV-2 (169); for Cytopathic effect [CPE] (3days) △CPE / Cytopathic effect [CPE] (5days) △CPE / Cytopathic effect [CPE] (6days) △CPE: difference from control
Description: Vero cells cultured and grown in a monolayer on microplates to test for cytopathic effect due to viral infection, with solutions of Compound A diluted to varying ratios and solutions of virus diluted to varying ratios added severally thereto in a volume of 0.1 ml, were cultured under the conditions of 5% CO₂ and 37°C and were examined for CPE manifestation under a microscope. The observation was continued for five to six days.
The degree of CPE brought about by viral infection was rated on the five-point scale, wherein 3 stands for CPE observed on not less than 75% of cultured cells, 2 for CPE observed on 50% of cultured cells, 1 for CPE observed on 25% of cultured cells, 0.5 for occurrence of one to two extremely minute DPE spots, and 0 for perfect absence of recognizable CPE. The CPE scores obtained at the four holes in each microplate were averaged and the difference of the average from the average obtained in the control (omitting the treatment with a chemical) was reported as ΔCPE.
In vitro antiviral activity of Compound A against herpes simplex virus type 2 (169 strain) The test was carried out by following the procedure of Example 3.

[4] = 100 μg/ml, HSV-1 (HF), Example 3
[5] = 100 μg/ml, HSV-1 (HF), Example 3, difference from control
[6] = 200 μg/ml, HSV-1 (HF strain), Example 5
[7] = 200 μg/ml, HSV-1 (HF strain), Example 5, difference from control

## K₅BW₁₂O₄₀.15H₂O [Compound A]
[1]; 100 μg/ml, HSV-1 (HF strain), Example 5, difference from control
  Cytopathic effect [CPE] (6days) ΔTCID50: 1.3
[1]; [4]
  Cytopathic effect [CPE] (3days) TCID50: 5.3
  Cytopathic effect [CPE] (5days) TCID50: 5.3
[1]; [5]
  Cytopathic effect [CPE] (3days) △TCID50: 0.7
  Cytopathic effect [CPE] (5days) △TCID50: 0.3
[1]; [6]
  Cytopathic effect [CPE] (3days) TCID50: <3.5
  Cytopathic effect [CPE] (6days) TCID50: <3.5
[1]; [7]
  Cytopathic effect [CPE] (3days) ΔTCID50: >2.8
  Cytopathic effect [CPE] (6days) ΔTCID50: > 2.8 and >2.5
[1]; varying concentrations of from 5 to 100 µg/ml, fifth day of observation, HSV-1 (HF), Example 3
  ΔTCID₅₀: 0.3
[2]; 50 μg/ml, extracellular virus
  Intracellular virus Average: 7.13×10^5 /dish
  Intracellular virus Control ratio %: 97.6%
  Intracellular virus Control ratio -logT/C: 1.623
[2]; 50 μg/ml
  Intracellular virus Average: 1.34×10^6 /dish
  Intracellular virus Control ratio %: 99.7%
  Intracellular virus Control ratio -logT/C: 2.482
[2]; 100 μg/ml, extracellular virus
  Intracellular virus Average: 8.38×10^4 /dish
  Intracellular virus Control ratio %: 99.7%
  Intracellular virus Control ratio -logT/C: 2.554
[2]; 100 μg/ml
  Intracellular virus Average: 1.99×10^6 /dish
  Intracellular virus Control ratio -logT/C: 7.211
[2]; 100 μg/ml, 1440 min
  Intracellular virus Control ratio %: >99.9%
[2]; 200 μg/ml, extracellular virus
  Intracellular virus Control ratio -logT/C: 5.778
[2]; 200 μg/ml, extracellular virus, 1440 min
  Intracellular virus Control ratio %: >99.9%
[2]; 200 μg/ml
  Intracellular virus Control ratio -logT/C: > 7.211
[2]; 200 μg/ml, 1440 min
  Intracellular virus Control ratio %: >99.9%
[2]; concentration not given, 1440 min
  control of the intracellular and extracellular viruses in the one-step growth: not less than 99.9%
[3]; 5 μg/ml, Example 4
  Cytopathic effect [CPE] (3days) Average: 1.0
  Cytopathic effect [CPE] (5days) Average: 2.5
  Cytopathic effect [CPE] (3days) △CPE: 0.5
  Cytopathic effect [CPE] (5days) △CPE: 0.5
[3]; 10 μg/ml, Example 4
  Cytopathic effect [CPE] (3days) Average: 1.0
  Cytopathic effect [CPE] (5days) Average: 2.0
  Cytopathic effect [CPE] (3days) △CPE: 0.5
  Cytopathic effect [CPE] (5days) △CPE: 1.0
[3]; 20 μg/ml, Example 4
  Cytopathic effect [CPE] (3days) Average: 1.0
  Cytopathic effect [CPE] (5days) Average: 1.25
  Cytopathic effect [CPE] (3days) △CPE: 0.5
  Cytopathic effect [CPE] (5days) △CPE: 1.75
[3]; 50 μg/ml, Example 4
  Cytopathic effect [CPE] (3days) Average: 0.5
  Cytopathic effect [CPE] (5days) Average: 0.5
  Cytopathic effect [CPE] (3days) △CPE: 1.0
  Cytopathic effect [CPE] (5days) △CPE: 2.5
[3]; 100 μg/ml, Example 4
  Cytopathic effect [CPE] (3days) Average: 0
  Cytopathic effect [CPE] (5days) Average: 0
  Cytopathic effect [CPE] (3days) △CPE: 1.5
  Cytopathic effect [CPE] (5days) △CPE: 3.05
[3]; 100 μg/ml, Example 6
  Cytopathic effect [CPE] (3days) Average: 0
  Cytopathic effect [CPE] (6days) Average: 0
  Cytopathic effect [CPE] (3days) △CPE: 2.5
  Cytopathic effect [CPE] (6days) △CPE: 3.0
[3]; 200 μg/ml, Example 6
  Cytopathic effect [CPE] (3days) Average: 0
  Cytopathic effect [CPE] (6days) Average: 0
  Cytopathic effect [CPE] (3days) △CPE: 2.5
  Cytopathic effect [CPE] (6days) △CPE: 3.0

Reference: EP0450065A1, “ANTIVIRAL AGENT” (priority 1988, dated 1990)
